From PubChem BioAssay (NCI)
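How tested: cells in 96-well plates exposed to compound for 48 hours at five concentrations. Here, GI50 denotes the concentration required for 50% inhibition of growth. TGI: concentration producing complete growth inhibition.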

Legend:
Test in all cases: NCI tumour cell line growth inhibition, 48 h
[1] = system: COLO 205 colon
[2] = system: UACC-62 melanoma
[3] = system: MOLT-4 leukemia
[4] = system: HCT-116 colon
[5] = system: NCI-H226 lung
[6] = system: M14 melanoma
[7] = system: NCI-H522 lung
[8] = system: IGROV1 ovarian
[9] = system: SW-620 colon
[10] = system: K-562 leukemia
[11] = system: SK-MEL-2 melanoma
[12] = system: DU-145 prostate
[13] = system: OVCAR-8 ovarian
[14] = system: HOP-62 NSCLC
[15] = system: HOP-92 NSCLC
[16] = system: A498 renal
[17] = system: HS 578T breast
[18] = system: RPMI-8226 leukemia
[19] = system: SK-MEL-5 melanoma
[20] = system: U251 CNS
[21] = system: 786-0 renal
[22] = system: SF-539 CNS
[23] = system: OVCAR-4 ovarian
[24] = system: TK-10 renal
[25] = system: MDA-MB-435
[26] = system: SK-OV-3 ovarian
[27] = system: MDA-MB-231 breast
[28] = system: KM12 colon
[29] = system: LOX IMVI melanoma
[30] = system: A549 NSCLC
[31] = system: HT29 colon
[32] = system: BT-549 breast
[33] = system: NCI-H460 lung
[34] = system: OVCAR-3 ovarian
[35] = system: NCI/ADR-RES ovarian
[36] = system: EKVX NSCLC
[37] = system: PC-3 prostate
[38] = system: SNB-19 CNS
[39] = system: UACC-257 melanoma
[40] = system: SF-295 CNS
[41] = system: HCC-2998 colon
[42] = system: OVCAR-5 ovarian
[43] = system: SF-268 CNS
[44] = system: HCT-15 colon
[45] = system: CCRF-CEM leukemia
[46] = system: UO-31 renal
[47] = system: MCF7 breast
[48] = system: NCI-H23 lung
[49] = system: HL-60(TB) leukemia
[50] = system: SN12C renal
[51] = system: MALME-3M melanoma
[52] = system: SR leukemia
[53] = system: SNB-75 CNS

**Q.** Which results are given for `CCCC[C@H](NC(=O)[C@H]1CCCCN1C)C(=O)N(C)[C@H](C[C@@H](OC(C)=O)c1nc(C(=O)N[C@@H](Cc2ccccc2)C[C@H](C)C(=O)OCC)cs1)C(C)C`?
**A.** GI50 [1]: < 0.00333 µM; TGI [1]: 0.00712 µM; GI50 [2]: < 0.00333 µM; TGI [2]: 24.1 µM; GI50 [3]: 0.00382 µM; TGI [3]: 20.5 µM; GI50 [4]: < 0.00333 µM; TGI [4]: > 33.3 µM; GI50 [5]: 0.0857 µM; TGI [5]: 19.1 µM; GI50 [6]: < 0.00333 µM; TGI [6]: 3.62 µM; GI50 [7]: < 0.00333 µM; TGI [7]: 0.775 µM; GI50 [8]: 0.00343 µM; TGI [8]: > 33.3 µM; GI50 [9]: < 0.00333 µM; TGI [9]: > 33.3 µM; GI50 [10]: < 0.00333 µM; TGI [10]: 11.1 µM; GI50 [11]: < 0.00333 µM; TGI [11]: 13.7 µM; GI50 [12]: < 0.00333 µM; TGI [12]: > 33.3 µM; GI50 [13]: 0.00528 µM; TGI [13]: > 33.3 µM; GI50 [14]: < 0.00333 µM; TGI [14]: 8.61 µM; GI50 [15]: 1.23 µM; TGI [15]: 27.3 µM; GI50 [16]: < 0.00333 µM; TGI [16]: 0.00869 µM; GI50 [17]: < 0.00333 µM; TGI [17]: 8.49 µM; GI50 [18]: < 0.00333 µM; TGI [18]: 4.85 µM; GI50 [19]: < 0.00333 µM; TGI [19]: 0.0473 µM; GI50 [20]: < 0.00333 µM; TGI [20]: 8.58 µM; GI50 [21]: < 0.00333 µM; TGI [21]: 6.27 µM; GI50 [22]: 0.00346 µM; TGI [22]: 0.024 µM; GI50 [23]: 0.476 µM; TGI [23]: > 33.3 µM; GI50 [24]: 7.86 µM; TGI [24]: > 33.3 µM; GI50 [25]: < 0.00333 µM; TGI [25]: < 0.00333 µM; GI50 [26]: < 0.00333 µM; TGI [26]: 13 µM; GI50 [27]: < 0.00333 µM; TGI [27]: 0.341 µM; GI50 [28]: < 0.00333 µM; TGI [28]: > 33.3 µM; GI50 [29]: < 0.00333 µM; TGI [29]: 5.64 µM; GI50 [30]: 0.00444 µM; TGI [30]: > 33.3 µM; GI50 [31]: < 0.00333 µM; TGI [31]: 3.6 µM; GI50 [32]: < 0.00333 µM; TGI [32]: 0.133 µM; GI50 [33]: < 0.00333 µM; TGI [33]: 5.65 µM; GI50 [34]: < 0.00333 µM; TGI [34]: 12.2 µM; GI50 [35]: 0.0828 µM; TGI [35]: > 33.3 µM; GI50 [36]: 0.00739 µM; TGI [36]: > 33.3 µM; GI50 [37]: < 0.00333 µM; TGI [37]: > 33.3 µM; GI50 [38]: < 0.00333 µM; TGI [38]: > 33.3 µM; GI50 [39]: 3.56 µM; TGI [39]: 10.6 µM; GI50 [40]: < 0.00333 µM; TGI [40]: 4.34 µM; GI50 [41]: < 0.00333 µM; TGI [41]: 8.39 µM; GI50 [42]: 0.00833 µM; TGI [42]: 21.6 µM; GI50 [43]: < 0.00333 µM; TGI [43]: 12.1 µM; GI50 [44]: 0.00521 µM; TGI [44]: 5.73 µM; GI50 [45]: < 0.00333 µM; TGI [45]: 6.21 µM; GI50 [46]: 0.0188 µM; TGI [46]: 11.9 µM; GI50 [47]: < 0.00333 µM; TGI [47]: > 33.3 µM; GI50 [48]: 0.00641 µM; TGI [48]: > 33.3 µM; GI50 [49]: < 0.00333 µM; TGI [49]: 0.00341 µM; GI50 [50]: 0.00583 µM; TGI [50]: 6.55 µM; GI50 [51]: 1.08 µM; TGI [51]: 7.1 µM; GI50 [52]: < 0.00333 µM; TGI [52]: 6.79 µM; GI50 [53]: < 0.00333 µM; TGI [53]: 10.8 µM
